For series [1] the following is noted: in vivo, cited from earlier work.
Series [2] concerns Ptc^C/C medulloblastoma. Kind of series: Ptc^C/C mouse medulloblastoma model: survival, symptoms, MRI tumor volume. In kind it is in vivo. The text has this: Transgenic mice were maintained in accordance with the NIH Guide for the Care and Use of Experimental Animals with approval from our Institutional Animal Care and Use Committee. Conditional Patched1 null mice (Ptc^C/C) were generated on a mixed background by breeding mice homozygous for the floxed Ptch1 allele (Adolphe et al., (2006) Cancer Res 66: 2081-2088) to Math1-Cre mice, as previously described (Yang et al. (2008) Cancer Cell 14: 135-145). Mice were genotyped by PCR using genomic DNA using the following primers:
Animal experiments were performed in accordance with the NIH Guide for the Care and Use of Experimental Animals with approval from our Institutional Animal Care and Use Committee. 100% penetrance of medulloblastoma in the Ptc^C/C mice was observed, with all mice displaying symptoms of tumor formation by the time of weaning. Ptc^C/C mice (age ranging from 21-36 days) were randomized to receive either IPI-926 (Infinity Pharmaceuticals) or vehicle control (5% (2-Hydroxylpropyl)-B-Cyclodextrin (HPBCD), Sigma Aldrich) administered via intraperitoneal (IP) injection.
Mice were euthanized using CO2 inhalation, brains were removed and tissue snap frozen for RNA studies or fixed in 10% buffered formalin and processed for histopathological examination. Formalin-fixed tissues were paraffin embedded, cut into 4 um sections and stained with Haematoxylin and Eosin using standard methods.
Magnetic resonance imaging (MRI) was performed using a 3 Tesla MRI system (Philips Achieva, Philips Healthcare, Andover, Mass.) and a custom mouse head coil. Serial MR scans were performed using a 35 minute coronal high-resolution T2-weighted sequence (TE=110 ms, TR=2000 ms, bandwidth=212, 2 NEX or signal averages, a matrix of 256×256 pixels in-plane, slice thickness of 320 microns and an interslice gap of 160 microns). Mice were scanned under halothane anesthesia at enrollment, after 3 weeks of treatment, and after 6 weeks of treatment. Ctx:Cy5.5 bioconjugate (Tumor Paint) was given by intravenous tail vein injection one day prior to animal sacrifice. Biophotonic images were obtained using the Xenogen Spectrum imaging system (Caliper Life Sciences) as previously described (Veiseh et al. (2007) Cancer 67: 6882-6888).
DICOM images were exported from the MRI scanner to a web-based repository (BioScribe) and then imported into ITK-SNAP (version 2.0, available on the world wide web at itksnap.org). Images were first windowed to accentuate tumor/brain contrast, easily observed on the T2-weighted scans. […] Effacement of the fourth ventricle was accompanied by lateral and third ventriculomegaly and transependymal CSF flow. Tumor and enlarged cerebellum was seen to herniate into the internal auditory canals (IAC) bilaterally. After each imaging time-point, using the manual tracing tool, tumor tissue (including the IAC components) was painted in three planes excluding frank cerebrospinal fluid or cystic regions. The resultant segmentation file was saved for later use. Three-dimensional surface-rendered reconstructions were then performed and saved in two standard projections for each tumor analyzed, with the aim of delineating a consistent view of the tumor for comparison between pre- and post-treatment scans and between treatment groups. Automated pixel counting multiplied by image pixel dimensions yielded volumetric measures for each segmentation analysis dataset. In addition to quantitative analysis, pre and post-treatment scans were compared for evaluation of secondary changes such as hydrocephalus, prominent extra-axial spaces, cystic change/necrosis in treated tumor and any evidence of hemorrhage.
Studies were designed to detect differences in event rates that approximately corresponded to a doubling of median improvement in survival of (3 weeks) with 90% power based on simulated power experiments. […]

Series [3] in a line: Phase 1 clinical trial. In kind it is in vivo.
Series [4] addresses T1, wild type human SMO (Homo sapiens, UniProt Q99835).
T1 construct: host or cells: C3H10T1/2 cells (ATCC CCL-226), mouse
Kind of series: Gli-luciferase reporter assay, C3H10T1/2 cells transfected with wild type SMO. The format is cell-based, mouse. The protocol: Wild type human SMO was subcloned into pcDNA3.1 from an expression construct in pCMV6 (Origene #SC122724). D473H SMO was then generated by site-directed mutagenesis using the Stratagene QuikChange kit (Agilent #200519) and sequence verified.
Gli-Luciferase reporter assays were performed as described. (Yauch et al. (2009) Science 326: 572-574) Briefly, C3H10 T1/2 cells (ATCC, #CCL-226) were plated in six-well plates at 1×10 to 5th cells per well in BME (Gibco #21010) with 10% FBS (Hyclone #SH30070.03), 2 mM Glutamine (Gibco #25030) and 50 units penicillin/50 ug streptomycin (Gibco #15140). The next morning, cells were transfected with 400 ng SMO expression construct, 400 ng 8× Gli-Luc, and 200 ng pRL-TK per well with GeneJuice transfection reagent (Novagen #70967). Cells in each well were lifted six hours later and replated into four wells of a 12 well plate and allowed to attach overnight. Medium was then changed to low (0.5%) serum and compounds were added in quadruplicate in a range of concentrations. After a 48 hour incubation, firefly and renilla luciferase were assayed using the Promega Dual-Glo Luciferase Assay System (Promega #E2940) and ratios were used to determine percent of control using Prism graphing software.

T1 sequence (Q99835 28-787): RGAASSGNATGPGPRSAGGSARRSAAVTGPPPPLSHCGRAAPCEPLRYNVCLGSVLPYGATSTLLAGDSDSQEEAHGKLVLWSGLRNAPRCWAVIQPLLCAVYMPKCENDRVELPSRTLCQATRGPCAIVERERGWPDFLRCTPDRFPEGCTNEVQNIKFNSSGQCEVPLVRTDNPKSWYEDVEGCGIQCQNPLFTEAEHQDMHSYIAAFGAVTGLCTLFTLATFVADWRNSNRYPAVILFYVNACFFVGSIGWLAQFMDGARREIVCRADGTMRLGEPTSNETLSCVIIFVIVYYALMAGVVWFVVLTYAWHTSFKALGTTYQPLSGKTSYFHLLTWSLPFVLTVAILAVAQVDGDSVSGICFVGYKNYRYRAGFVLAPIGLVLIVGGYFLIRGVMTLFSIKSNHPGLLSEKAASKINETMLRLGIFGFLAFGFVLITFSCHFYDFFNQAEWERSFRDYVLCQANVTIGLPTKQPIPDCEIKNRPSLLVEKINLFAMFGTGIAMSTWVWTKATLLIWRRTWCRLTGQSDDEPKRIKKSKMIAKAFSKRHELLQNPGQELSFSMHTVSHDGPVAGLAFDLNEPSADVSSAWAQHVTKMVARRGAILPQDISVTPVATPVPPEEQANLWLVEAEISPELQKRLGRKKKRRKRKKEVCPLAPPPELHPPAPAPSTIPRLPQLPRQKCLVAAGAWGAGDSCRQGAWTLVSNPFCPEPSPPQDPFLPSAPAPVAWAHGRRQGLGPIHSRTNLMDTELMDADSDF

For `CC1=C2C[C@H]3[C@@H](CC[C@@H]4C[C@H](NS(C)(=O)=O)CC[C@@]43C)[C@@H]2CC[C@@]2(C1)O[C@@H]1C[C@H](C)CN[C@H]1[C@H]2C` [IPI-926], in series [1] (po), the oral bioavailability result is given as “orally bioavailable”. In series [1], the duration of action result was “long duration of action” and the plasma half-life result is listed as “long plasma half-life”. Also, the “fraction of mice with rebound in tumor growth by 6 weeks (MRI)” value in series [2] (20 mg/kg/day, after maximal size reduction at 3 weeks) is given as “approximately half”. In addition, in series [2] (after three weeks of daily administration), the “tumor volume by MRI” value was “substantial tumor regression”. For the same compound, the “average time to death after stopping treatment” value in series [2] (drug withdrawn after six weeks of daily 20 mg/kg) is on record as at most 10 days. Also, the “clinical symptoms of medulloblastoma” value in series [2] (pilot study, daily IP 20 mg/kg/dose, 19 days of treatment) is given as “full resolution of clinical symptoms”. Further, the “mice still alive six weeks after starting twice-a-week therapy” value in series [2] (six weeks daily then maintenance 20 mg/kg twice per week) is reported as 77%. In series [2] (six weeks of daily IPI-926 20 mg/kg IP, vehicle 0%), this compound yielded a survival of 100%. In series [3], the clinical activity result is “demonstrated clinical activity” and the tolerability entry was “well-tolerated”. In series [4], this compound registered an IC50 of 9 nM.

(Values after US20120010229A1, “THERAPEUTIC REGIMENS FOR HEDGEHOG-ASSOCIATED CANCERS” (priority 2010, published 2012).)
